What all share (assay type): functional
The test system of test [1] is Rattus norvegicus. The test can be described thus: Compound evaluated for hypoglycemic activity by lowering blood glucose in normal rats by 20% after oral administration; Inactive (less than 10% blood sugar decrease).
The subject of test [2] is Rattus norvegicus. In words: Compound evaluated for hypoglycemic activity by lowering blood glucose in normal rats by 20% after oral administration (highest dose tested).
The subject of test [3] is Rattus norvegicus. In words: Compound evaluated for hypoglycemic activity by lowering blood glucose in normal rats by 20% after oral administration; highest dose tested;inactive(less than 10% blood sugar decrease).
Test [4] has as its system Rattus norvegicus. The test can be described thus: Compound evaluated for hypoglycemic activity by lowering blood glucose in streptozotocin-diabetic rats by 20% after oral administration.
Test [5] relates to Rattus norvegicus. In words: Compound evaluated for hypoglycemic activity by lowering blood glucose in normal rats by 50% after oral administration; inactive(less than 10% blood sugar decrease).

The structures appear in SMILES notation.

On to `COCC(=O)NCCc1ccc(S(=O)(=O)N2CCN(C3CCCCC3)C2=N)cc1`, for which the ED20 in test [1] is more than 0.92 mmol/kg.
As for `N=C1N(C2CCCCC2)CCN1S(=O)(=O)c1ccc(CCNC(=O)c2ccccn2)cc1`, the ED20 in test [2] was more than 0.83 mmol/kg.
As usually defined, the ED50 is the dose at which the effect has come halfway, by size or by number of responders. For the compound `N=C(N)NC(=N)NCCc1ccccc1` [PHENFORMIN], the values for the ED20 in test [3] and in test [4] were more than 1 mmol/kg and 0.16 mmol/kg, respectively. Besides, the ED50 in test [5] is more than 1000 µmol/kg.

The values are drawn from ChEMBL document CHEMBL1122254, “Sulfonyliminoimidazolidines. A new class of oral hypoglycemic agents. 1. 1-[[p-[2-(acylamino)ethyl]phenyl]sulfonyl]-2-iminoimidazolidines” (1983).
